Assays:
Conditions in all cases: incubation time: 72 h
MDA-MB-231 [1] = assay: normalised viability (% of control), CellTiter-Blue; higher = more viable cells (about 100 = DMSO control)
Summary of the method: (§1)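 Breast cancer cell lines in 20 µl suspension were seeded onto 384-well plates pre-loaded with compound dissolved in 5 µl medium, then incubated 72 h. CellTiter-Blue reagent (2.5 µl) was added for 2 h at 37 °C and fluorescence read at 560/590 nm. Each plate was normalised to vehicle (100) and a positive kill control (0), with Z'-factor quality control. The value is normalised viability at one listed concentration of the series.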

MDA-MB-453 = assay: as above
Summary of the method: as §1

BT-549 = assay: as above
Summary of the method: as §1

SK-BR-3 = assay: as above
Summary of the method: as §1

Hs578T [2] = assay: as above
Summary of the method: as §1

MDA-MB-468 = assay: as above
Summary of the method: as §1

HDQ-P1 = assay: as above
Summary of the method: as §1

HCC1937 [3] = assay: as above
Summary of the method: as §1

DU-4475 = assay: as above
Summary of the method: as §1

BT-474 = assay: as above
Summary of the method: as §1

CAL-85-1 = assay: as above
Summary of the method: as §1

HCC1599 = assay: as above
Summary of the method: as §1

HCC1143 = assay: as above
Summary of the method: as §1

MFM-223 = assay: as above
Summary of the method: as §1

MDA-MB-436 = assay: as above
Summary of the method: as §1

CAL-51 = assay: as above
Summary of the method: as §1

MDA-MB-231 [4] = assay: drug sensitivity score (DSS), CellTox Green (DSS (AUC-based score)); higher = stronger drug effect (viability inhibition or cytotoxicity); extreme values may be limits of the assay
Summary of the method: (§2)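 Normalisation on every plate relied on 0.1 % DMSO and a positive kill control. The plates, 384-well format, held compound at 5 concentrations 10-fold apart across a compound-specific 10,000-fold range, and breast cancer cell lines in 20 µl suspension were incubated on them for 72 h before CellTox Green and then CellTiter-Glo readings. The drug sensitivity score derives from the area under the fitted dose-response curve.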

Hs578T [5] = assay: as above
Summary of the method: as §2

HCC1937 [6] = assay: as above
Summary of the method: as §2

Nc1ccn([C@@H]2O[C@H](CO)[C@@H](O)[C@@H]2O)c(=O)n1 [Cytarabine] showed a normalised viability (MDA-MB-231 [1]; 10 nM) of 100%, a normalised viability (MDA-MB-231 [1]; 1000 nM) of 67% and a normalised viability (MDA-MB-231 [1]; 10000 nM) of 61.7%. It also gave a normalised viability (MDA-MB-453; 3 nM) of 101%, a normalised viability (MDA-MB-453; 30 nM) of 111% and a normalised viability (MDA-MB-453; 100 nM) of 94.9%. For the same molecule, the normalised viability (BT-549; 10 nM) was 87.2%, the normalised viability (BT-549; 1000 nM) was 65.7% and the normalised viability (BT-549; 10000 nM) was 62.9%. It also gave a normalised viability (SK-BR-3; 10 nM) of 97.3%, a normalised viability (SK-BR-3; 1000 nM) of 64.7% and a normalised viability (SK-BR-3; 10000 nM) of 47.2%. It also gave a normalised viability (Hs578T [2]; 10 nM) of 90.4%, a normalised viability (Hs578T [2]; 1000 nM) of 67.8% and a normalised viability (Hs578T [2]; 10000 nM) of 62.3%. The normalised viability (MDA-MB-468; 10 nM) was 101%, the normalised viability (MDA-MB-468; 1000 nM) was 68.4% and the normalised viability (MDA-MB-468; 10000 nM) was 57.2%. It also gave a normalised viability (HDQ-P1; 3 nM) of 80.6%, a normalised viability (HDQ-P1; 30 nM) of 94.8% and a normalised viability (HDQ-P1; 100 nM) of 42.5%. It also gave a normalised viability (HCC1937 [3]; 10 nM) of 124%, a normalised viability (HCC1937 [3]; 1000 nM) of 41.6% and a normalised viability (HCC1937 [3]; 10000 nM) of 42.6%. It also gave a normalised viability (DU-4475; 3 nM) of 121%, a normalised viability (DU-4475; 30 nM) of 87.8% and a normalised viability (DU-4475; 100 nM) of 93.9%. It also gave a normalised viability (BT-474; 10 nM) of 103%, a normalised viability (BT-474; 1000 nM) of 95.7% and a normalised viability (BT-474; 10000 nM) of 93.4%. It also gave a normalised viability (CAL-85-1; 3 nM) of 106%, a normalised viability (CAL-85-1; 30 nM) of 97.4% and a normalised viability (CAL-85-1; 100 nM) of 104%. It also gave a normalised viability (HCC1599; 10 nM) of 109%, a normalised viability (HCC1599; 1000 nM) of 78.7% and a normalised viability (HCC1599; 10000 nM) of 77.4%. For the same molecule, the normalised viability (HCC1143; 10 nM) was 80.5%, the normalised viability (HCC1143; 1000 nM) was 71.4% and the normalised viability (HCC1143; 10000 nM) was 63%. It also gave a normalised viability (MFM-223; 10 nM) of 107%, a normalised viability (MFM-223; 1000 nM) of 95.6% and a normalised viability (MFM-223; 10000 nM) of 97.3%. It also gave a normalised viability (MDA-MB-436; 10 nM) of 98.2%, a normalised viability (MDA-MB-436; 1000 nM) of 74.3% and a normalised viability (MDA-MB-436; 10000 nM) of 74.1%. For the same molecule, the normalised viability (CAL-51; 3 nM) was 94.1%, the normalised viability (CAL-51; 30 nM) was 91.9% and the normalised viability (CAL-51; 100 nM) was 79.8%. The drug sensitivity score (MDA-MB-231 [4]) was 0, the drug sensitivity score (Hs578T [5]) was 0 and the drug sensitivity score (HCC1937 [6]) was 0.

COc1cc(Nc2ncc3c(n2)-c2ccc(Cl)cc2C(c2c(F)cccc2OC)=NC3)ccc1C(=O)O [MLN8237] was tested, and the normalised viability (MDA-MB-231 [1]; 10 nM) was 101%, the normalised viability (MDA-MB-231 [1]; 1000 nM) was 58% and the normalised viability (MDA-MB-231 [1]; 10000 nM) was 33.3%. It also gave a normalised viability (MDA-MB-453; 3 nM) of 91.8%, a normalised viability (MDA-MB-453; 30 nM) of 50.2% and a normalised viability (MDA-MB-453; 100 nM) of 44.3%. For the same molecule, the normalised viability (BT-549; 10 nM) was 103%, the normalised viability (BT-549; 1000 nM) was 62.6% and the normalised viability (BT-549; 10000 nM) was 32.6%. For the same molecule, the normalised viability (SK-BR-3; 10 nM) was 87.3%, the normalised viability (SK-BR-3; 1000 nM) was 59.5% and the normalised viability (SK-BR-3; 10000 nM) was 46.8%. For the same molecule, the normalised viability (Hs578T [2]; 10 nM) was 113%, the normalised viability (Hs578T [2]; 1000 nM) was 59.2% and the normalised viability (Hs578T [2]; 10000 nM) was 45.6%. It also gave a normalised viability (MDA-MB-468; 10 nM) of 96.7%, a normalised viability (MDA-MB-468; 1000 nM) of 42.6% and a normalised viability (MDA-MB-468; 10000 nM) of 35.2%. For the same molecule, the normalised viability (HDQ-P1; 3 nM) was 102%, the normalised viability (HDQ-P1; 30 nM) was 82.2% and the normalised viability (HDQ-P1; 100 nM) was 64%. It also gave a normalised viability (HCC1937 [3]; 10 nM) of 68%, a normalised viability (HCC1937 [3]; 1000 nM) of 40% and a normalised viability (HCC1937 [3]; 10000 nM) of 42.2%. For the same molecule, the normalised viability (DU-4475; 3 nM) was 98.3%, the normalised viability (DU-4475; 30 nM) was 82.6% and the normalised viability (DU-4475; 100 nM) was 37.5%. It also gave a normalised viability (BT-474; 10 nM) of 103%, a normalised viability (BT-474; 1000 nM) of 82.9% and a normalised viability (BT-474; 10000 nM) of 58.5%. The normalised viability (CAL-85-1; 3 nM) was 89%, the normalised viability (CAL-85-1; 30 nM) was 80.6% and the normalised viability (CAL-85-1; 100 nM) was 69.4%. It also gave a normalised viability (HCC1599; 10 nM) of 103%, a normalised viability (HCC1599; 1000 nM) of 87.7% and a normalised viability (HCC1599; 10000 nM) of 66.9%. For the same molecule, the normalised viability (HCC1143; 10 nM) was 112%, the normalised viability (HCC1143; 1000 nM) was 70.7% and the normalised viability (HCC1143; 10000 nM) was 51.1%. For the same molecule, the normalised viability (MFM-223; 10 nM) was 79.3%, the normalised viability (MFM-223; 1000 nM) was 50.7% and the normalised viability (MFM-223; 10000 nM) was 30.8%. For the same molecule, the normalised viability (MDA-MB-436; 10 nM) was 133%, the normalised viability (MDA-MB-436; 1000 nM) was 54.7% and the normalised viability (MDA-MB-436; 10000 nM) was 70.8%. It also gave a normalised viability (CAL-51; 3 nM) of 102%, a normalised viability (CAL-51; 30 nM) of 91.8% and a normalised viability (CAL-51; 100 nM) of 64.3%.

For CC(=O)O[C@]1(C(C)=O)CC[C@H]2[C@@H]3C=C(C)C4=CC(=O)CC[C@]4(C)[C@H]3CC[C@@]21C [Megestrol acetate], the drug sensitivity score (MDA-MB-231 [4]) was 0, the drug sensitivity score (Hs578T [5]) was 1.68 and the drug sensitivity score (HCC1937 [6]) was 0.
